In patent publication US8846308B2, “Method for identifying immune response modulators” (The Trustees of the University of Pennsylvania, priority 2007, dated 2014):

Test system: FOXP3
Test: Acetylation of chromatin-bound FOXP3 in HA-FOXP3a/3b transfected Jurkat T cells (immunoblot)
Type: cell-based, human
Conditions: 1 ng TGF-β per million cells; serum-starved Jurkat T cells; between 2 and 4 hours after exposure; anti-acetyl lys immunoblot; FIG. 10B
Procedure: FIG. 10B is an image of an immunoblot of untreated and TGF-β treated, human HA-FOXP3a/3b transfected Jurkat T cells. The transfected cells were stimulated with or without 1 ng TGF-β per million cells for indicated time periods. Equal amounts of proteins from chromatin rich fractions were separated by SDS-PAGE, transferred to nitrocellulose, and immunoblotted with anti-acetyl lys specific antibody (Ac-K-103, Santa Cruz) followed by reprobing with anti-HA-HRP conjugated antibody. Acetylated FOXP3a and FOXP3b proteins are marked.
The effect of TGF-β on the acetylation of FOXP3 was examined. Serum-starved human HA-FOXP3a/3b transfected Jurkat T cells were stimulated with or without 1 ng TGF-β per million cells for indicated time periods. Equal amounts of proteins from chromatin rich fractions were separated by SDS-PAGE, transferred to nitrocellulose, and immunoblotted with anti-acetyl lys specific antibody (Ac-K-103, Santa Cruz) followed by reprobing with anti-HA-HRP conjugated antibody (FIG. 9B).

Transforming Growth Factor-β [TGF-β]
chromatin-bound acetylated FOXP3: High levels of chromatin-bound acetylated FOXP3
